Measurements as given in article PMC8713996, “An anti-tuberculosis compound screen using a zebrafish infection model identifies an aspartyl-tRNA synthetase inhibitor” (Disease Models & Mechanisms, 2021).
Values after ≈ are worked out from the molar mass of the structure shown.

What was measured:
M. tuberculosis H37Rv = assay: microbe, parasite or virus in culture; assay type: cell-based; conditions: Mycobacterium tuberculosis, read-out: MIC90 Mtb in vitro; for IC90: 144 h
[1] = tested on: Mtb-infected THP-1 macrophages; assay: microbe, parasite or virus in culture; assay type: cell-based, Mycobacterium tuberculosis; conditions: for MIC50 / IC50: Mycobacterium tuberculosis, read-out: MIC50 Mtb ex vivo; for IC50: THP-1, 96 h
[2] = tested on: M. marinum-tdTomato yolk-infected zebrafish embryos; conditions: in vivo
M. marinum M^USA = assay: microbe, parasite or virus in culture; assay type: cell-based; conditions: Mycobacterium marinum, read-out: MIC90 Mmar in vitro

| SMILES | MIC90 (M. tuberculosis H37Rv) | MIC50 [1] | Bacterial load (integrated red fluorescence) in infected embryos vs DMSO [2] | also measured |
| --- | --- | --- | --- | --- |
| COc1ccc(Cc2nn3c(-c4ccccc4)nnc3s2)cc1 [TBA29] | 3.6 ± 0.9 µM (≈ 1.16 µg/mL) | 6.1 ± 4 µM (≈ 1.97 µg/mL) | – | – |
| CCc1cccc2c(C(=O)COC(=O)c3ccc([N+](=O)[O-])s3)c[nH]c12 [TBA172] | 2.4 ± 0.4 µM (≈ 0.86 µg/mL) | > 30 µM | – | Intracellular activity (bacterial viability, macrophage protection) [1]: did not show activity |
| O=C(Nc1ccc(F)cc1)NC1CCCCCCC1 [TBA145] | 19 ± 5.7 µM (≈ 5.02 µg/mL) | 8 ± 14.2 µM (≈ 2.11 µg/mL) | – | – |
| CC(C)C(=O)Nc1ccc(C(=O)Oc2ccccc2)c(O)c1 [TBA32] | 2 ± 0.5 µM (≈ 0.599 µg/mL) | 9.6 ± 16.6 µM (≈ 2.87 µg/mL) | – | – |
| O=[N+]([O-])c1cn2c(n1)OC[C@@H](OCc1ccc(OC(F)(F)F)cc1)C2 [pretonamid] | – | – | significant reduction of the bacterial signal | – |
| CC(=O)NC[C@H]1CN(c2ccc(N3CCSCC3)c(F)c2)C(=O)O1 [sutezolid] | – | – | significant reduction of the bacterial signal | – |
| COc1ccc(CNC(=O)c2c(C)nc3ccccn23)cc1 [TBA117] | 4 ± 1.4 µM (≈ 1.18 µg/mL) | 0.4 ± 0.1 µM (≈ 0.118 µg/mL) | – | – |
| COc1nc2ccc(Br)cc2cc1[C@@H](c1ccccc1)[C@@](O)(CCN(C)C)c1cccc2ccccc12 [bedaquiline] | – | – | significant reduction of the bacterial signal | – |
| Cc1nc2ccccn2c1C(=O)NCc1ccc2c(c1)OCO2 [TBA120] | 5.9 ± 2.6 µM (≈ 1.83 µg/mL) | 0.5 ± 0.2 µM (≈ 0.155 µg/mL) | – | – |
| CO[C@H]1/C=C/O[C@@]2(C)Oc3c(C)c(O)c4c(O)c(c(/C=N/N5CCN(C)CC5)c(O)c4c3C2=O)NC(=O)/C(C)=C\C=C\[C@H](C)[C@H](O)[C@@H](C)[C@@H](O)[C@@H](C)[C@H](OC(C)=O)[C@@H]1C [rifampicin] | – | – | significant reduction of the bacterial signal | – |
| Cc1ccc(NC(=O)C23CC4CC(CC2C4)C3)cc1 [TBA52] | – | – | – | IC90 (M. tuberculosis H37Rv): 9.6 ± 5.3 µM; IC50 [1]: 4.2 ± 6 µM |
| CCc1cc(C(N)=S)ccn1 [ethionamide] | – | – | significant reduction of the bacterial signal | – |
| CC12CC3CC(C)(C1)CC(C(=O)Nc1nc4ccccc4s1)(C3)C2 [TBA8] | 15.8 ± 7.5 µM (≈ 5.38 µg/mL) | 6.9 ± 8.7 µM (≈ 2.35 µg/mL) | – | – |
| O=C(Nc1ccc(Cl)cc1)NC1CC2CCC1C2 (stereo not drawn) [TBA37] | 13.6 ± 4.3 µM (≈ 3.6 µg/mL) | 5.5 ± 3.6 µM (≈ 1.46 µg/mL) | – | – |
| Cc1ccc(-c2nnc3sc(Cc4ccccc4)nn23)cc1 [TBA38] | 9.9 ± 1.9 µM (≈ 3.03 µg/mL) | 5.6 ± 3.4 µM (≈ 1.72 µg/mL) | – | – |
| O=c1nc(N2CCN(CC3CCCCC3)CC2)sc2c([N+](=O)[O-])cc(C(F)(F)F)cc12 [macozinone] | – | – | significant reduction of the bacterial signal | – |
| O=C(OCC(=O)c1c[nH]c2ccccc12)c1ccc([N+](=O)[O-])s1 [TBA61] | 2.2 ± 0.2 µM (≈ 0.727 µg/mL) | > 30 µM | – | Intracellular activity (bacterial viability, macrophage protection) [1]: did not show activity |
| CC(C)(C)c1ccc(Cn2cnc([N+](=O)[O-])n2)cc1 [TBA139] | – | – | – | IC90 (M. tuberculosis H37Rv): 11.8 ± 12.4 µM; IC50 [1]: 4.6 ± 7.1 µM |
| COc1cccc(OCCNC(=O)c2cc([N+](=O)[O-])cc([N+](=O)[O-])c2)c1 [TBA57] | 1.7 ± 3.1 µM (≈ 0.614 µg/mL) | 1.6 ± 0.7 µM (≈ 0.578 µg/mL) | – | – |
| CC(C)=CCC/C(C)=C/CNCCNC1C2CC3CC(C2)CC1C3 (stereo not drawn) [SQ109] | – | – | significant reduction of the bacterial signal | – |
| O=c1c2ccccc2oc2nc3n(c(=O)c12)CCCS3 [TBA161-A, 3,4-dihydro-chromeno[2′,3′:4,5]pyrimido[2,1-b][1,3]thiazine-6,7-dione] | 3.8 ± 3.1 µM (≈ 1.09 µg/mL) | 1.1 ± 0.9 µM (≈ 0.315 µg/mL) | – | MIC90 (M. marinum M^USA): 2.8 ± 1.7 µM (≈ 0.802 µg/mL) |
| C[C@]1(COc2ccc(N3CCC(Oc4ccc(OC(F)(F)F)cc4)CC3)cc2)Cn2cc([N+](=O)[O-])nc2O1 [delamanid] | – | – | significant reduction of the bacterial signal | – |
